{
  "source": "paper PMC9219824",
  "about": "“Antiplasmodial Cyclodecapeptides from Tyrothricin Share a Target with Chloroquine” (Antibiotics, 2022)",
  "key": {"CQR P. falciparum Dd2": {"test_system": "CQR P. falciparum Dd2", "assay": "microbe, parasite or virus in culture", "assay_type": "cell-based, Plasmodium falciparum", "details": "for IC50: read-out: IC50, CQR P. falciparum Dd2; for Resistance Index IC50Dd2/IC503D7: first value of cell; for Resistance Index IC50Dd2/IC50D10: second value of cell", "description": "(§1) The antimalarial assays were carried out according to the method of Nkhoma et al.. […] On the day of the assay, the parasitemia was determined following observation by light microscopy after Giemsa staining of a thin blood smear from the culture. The cultures at young trophozoite stage were diluted to 2% parasitemia and 2% hematocrit by addition of fresh RPMI medium and uninfected erythrocytes. This culture suspension was distributed in 96-well culture plates at 90 µL/well. […] Peptide solvent and medium (10 µL/well) was used as sterility control and in growth control and 10 μL 1.0 mM GS was used as positive control. Assays were carried out in at least three biological repeats each consisting of three technical repeats to ascertain reproducibility.\n(§2) The culture suspension was frozen away at −20 °C until determination of the residual lactate dehydrogenase activity of the parasites by the Malstat assay, as adapted from Gomez et al..\n(§3) For the Malstat assay, the plates were transferred to −80 °C for 1 h following overnight storage at −20 °C to ensure that all the suspensions in each well of the 96-well plate were frozen. The plates were then thawed at room temperature. The Malstat reagent consisted of 200 μL Triton X-100, 2 g L-lactic acid (substrate), 0.66 g Tris-HCl buffer and 0.011 g of 3-acetylpyridine adenine dinucleotide (APAD) (coenzyme for parasite lactate dehydrogenase) in 100 mL analytical quality water set to a pH of 9.0 [93]. […] A 15 µL aliquot of the thawed and properly mixed suspension from the assay plates was added to 100 µL of the Malstat reagent, followed by addition of 25 µL of the NBT/PES solution. The reaction mixtures were then incubated at room temperature in the dark for 30 min followed by spectrophotometric measurement of the absorbance of the reduced APAD at 620 nm using a Model 680 Microplate reader from BioRad.\n(§4) The data obtained from spectrophotometric measurement of the plates following the lactate dehydrogenase (Malstat) assay were converted to percentage growth inhibition using the data analysis method described by Rautenbach et al.. The background was obtained from control wells in which the parasites were killed with 100 µM GS while total growth was from the wells that were not submitted to peptides. […] The percentage COS-1 cell death (CellTiter Blue™ assay) was similarly calculated from absorbance values."}, "CQS P. falciparum 3D7": {"test_system": "CQS P. falciparum 3D7", "assay": "microbe, parasite or virus in culture", "assay_type": "cell-based, Plasmodium falciparum", "description": "as §1, §2, §3, §4"}, "CQI P. falciparum D10": {"test_system": "CQI P. falciparum D10", "assay": "microbe, parasite or virus in culture", "assay_type": "cell-based, Plasmodium falciparum", "details": "for IC50: 48 h, Malstat, ± SEM", "description": "The antimalarial assays were carried out according to the method of Nkhoma et al.. Once the cultures reached a parasitemia of 5–15%, they were synchronized four days prior to the day of the assay as described above which allowed the cultures to recover from the stress caused by the D-sorbitol. On the day of the assay, the parasitemia was determined following observation by light microscopy after Giemsa staining of a thin blood smear from the culture. The cultures at young trophozoite stage were diluted to 2% parasitemia and 2% hematocrit by addition of fresh RPMI medium and uninfected erythrocytes. This culture suspension was distributed in 96-well culture plates at 90 µL/well. The peptides and CQ diluted in culture medium lacking albumax II were added to the cultures in triplicate at 10 µL/well to give a total volume of 100 µL/well. Peptide solvent and medium (10 µL/well) was used as sterility control and in growth control and 10 μL 1.0 mM GS was used as positive control. Assays were carried out in at least three biological repeats each consisting of three technical repeats to ascertain reproducibility.\nFor the activity determination against parasites, plates were incubated at 37 °C for 48 h under an atmosphere of 3% CO2, 4% O2 and 93% N2. The culture suspension was frozen away at −20 °C until determination of the residual lactate dehydrogenase activity of the parasites by the Malstat assay, as adapted from Gomez et al..\nFor the Malstat assay, the plates were transferred to −80 °C for 1 h following overnight storage at −20 °C to ensure that all the suspensions in each well of the 96-well plate were frozen. The plates were then thawed at room temperature. The Malstat reagent consisted of 200 μL Triton X-100, 2 g L-lactic acid (substrate), 0.66 g Tris-HCl buffer and 0.011 g of 3-acetylpyridine adenine dinucleotide (APAD) (coenzyme for parasite lactate dehydrogenase) in 100 mL analytical quality water set to a pH of 9.0 [93]. The lactate dehydrogenase reaction was initiated by addition of a second solution, NBT/PES solution composed of 1.96 mM nitro blue tetrazolium (NBT) and 0.24 mM phenazine ethosulfate (PES) which was always protected from light. A 15 µL aliquot of the thawed and properly mixed suspension from the assay plates was added to 100 µL of the Malstat reagent, followed by addition of 25 µL of the NBT/PES solution. The reaction mixtures were then incubated at room temperature in the dark for 30 min followed by spectrophotometric measurement of the absorbance of the reduced APAD at 620 nm using a Model 680 Microplate reader from BioRad.\n(§5) The data obtained from spectrophotometric measurement of the plates following the lactate dehydrogenase (Malstat) assay were converted to percentage growth inhibition using the data analysis method described by Rautenbach et al.. The background was obtained from control wells in which the parasites were killed with 100 µM GS while total growth was from the wells that were not submitted to peptides. The background for the hemolysis evaluation was from wells in which the uninfected erythrocytes were lysed using 100 µM GS while growth control was from the wells with uninfected erythrocytes that received no peptides. The percentage COS-1 cell death (CellTiter Blue™ assay) was similarly calculated from absorbance values. All the dose–response assay data were evaluated using GraphPad Prism 4.03 (GraphPad Software, San Diego, CA, USA) followed by non-linear regression and sigmoidal curves were fitted (having variable slope and a constant difference of 100 between the top and bottom plateau). Following calculation of the 50% P. falciparum inhibitory concentration (IC50), 50% hemolytic concentration (HC50) and 50% lethal concentration (LC50) for COS-1 cells."}, "[1]": {"assay": "Toxicity to COS-1 cells, CellTiter Blue viability", "assay_type": "cell-based", "details": "24 h, resazurin (CellTiter Blue), read-out: Toxicity LC50, COS Cells", "description": "COS-1 cells were cultured in DMEM containing 0.9 g/L glucose, 0.12% NaHCO3, 10% fetal calf serum and 1% penicillin–streptomycin at 37 °C and under an atmosphere of 5% CO2 [95]. Twenty hours before the assay, the cells were transferred to 96-well plates at a density of 1.5 × 10^4 cells/well. The peptides from the dilution series were added to each well and incubated for 24 h. The cell viability was measured by adding 20 μL/well resazurin reagent (CellTiter Blue™), followed by four hours incubation at room temperature in the dark and measurement of the absorbance at 560 nm and 600 nm in the BioRad microplate reader.\nas §5"}, "human erythrocytes": {"test_system": "human erythrocytes", "assay": "Hemolytic activity", "assay_type": "cell-based", "details": "2% hematocrit, 1 h at 37 °C, ± SEM", "description": "To determine the hemolytic activity of the peptides, the duplicate 96-well plates with samples added to 90 μL 2% hematocrit per well were incubated for one hour at 37 °C and centrifuged using a swing-out rotor at 200× g for 3 min. The supernatant was diluted 1:8 in analytical quality water in separate 96-well plates and after mixing, the absorbance of the suspension was determined at 405 nm.\nas §5"}},
  "note": "Where two headings read alike, the source gives them in different places. Square brackets hold non-standard residues; d marks the D form. Peptide text beside a SMILES is read from it. Orn = NCCC[C@H](N)C(=O)O",
  "data": [
    {"smiles": "CCN(CC)CCCC(C)Nc1ccnc2cc(Cl)ccc12", "note": "(stereo not shown) [CQ, chloroquine]", "values": [
      {"measurement": "IC50", "setting": "CQR P. falciparum Dd2; Plasmodium falciparum, DD2, 48 h", "result": "277 ± 18", "unit": "nM"},
      {"measurement": "Resistance Index IC50Dd2/IC503D7", "setting": "CQR P. falciparum Dd2", "result": 16},
      {"measurement": "Resistance Index IC50Dd2/IC50D10", "setting": "CQR P. falciparum Dd2", "result": 7},
      {"measurement": "IC50", "setting": "CQS P. falciparum 3D7; Plasmodium falciparum, 3D7, 48 h, read-out: IC50, CQS P. falciparum 3D7", "result": "17 ± 5", "unit": "nM"},
      {"measurement": "IC50", "setting": "CQI P. falciparum D10; Plasmodium falciparum, D10", "result": "40 ± 3", "unit": "nM"}
    ]},
    {"smiles": "CC(C)C[C@@H]1NC(=O)[C@H](CCCN)NC(=O)[C@H](C(C)C)NC(=O)[C@@H]2CCCN2C(=O)[C@@H](Cc2ccccc2)NC(=O)[C@H](CC(C)C)NC(=O)[C@H](CCCN)NC(=O)[C@H](C(C)C)NC(=O)[C@@H]2CCCN2C(=O)[C@@H](Cc2ccccc2)NC1=O", "note": "[GS, gramicidin S, reference compound] (cyclo(V[Orn]L[dF]PV[Orn]L[dF]P))", "values": [
      {"measurement": "IC50", "setting": "CQR P. falciparum Dd2; 48 h, Malstat, ± SEM", "result": "1860 ± 160", "unit": "nM"},
      {"measurement": "Resistance Index IC50Dd2/IC503D7", "setting": "CQR P. falciparum Dd2", "result": "1.3; 1.3"},
      {"measurement": "Resistance Index IC50Dd2/IC50D10", "setting": "CQR P. falciparum Dd2", "result": "1.3; 1.3"},
      {"measurement": "IC50", "setting": "CQS P. falciparum 3D7; CQS 3D7, 48 h", "result": "1450 ± 151", "unit": "nM"},
      {"measurement": "IC50", "setting": "CQI P. falciparum D10", "result": "1400 ± 86", "unit": "nM"},
      {"measurement": "Selectivity Index IC50D10/IC50 (COS cells)", "setting": "CQI P. falciparum D10; second value of cell", "result": 6},
      {"measurement": "CC50", "setting": "[1]", "result": 9000, "unit": "nM"},
      {"measurement": "HC50, Erythrocytes", "setting": "human erythrocytes", "result": "6.2 ± 0.4 (9) μM"}
    ]}
  ]
}
